# Experiments:
# [1] = tested on: Human colon carcinoma HCT116 cells; experiment: Detection of antiproliferative activity (Alamar Blue assay); format: cell-based; conditions: HCT-116, 96 h, 4-day incubation, read-out: Cellular assay HCT116 pIC50 (converted)
# Protocol: Example C.4 Detection of Antiproliferative Activity
# Human colon carcinoma HCT116 cells obtained from the ATCC were cultured in McCoy's 5A medium supplemented with 2 mM L-Glutamine, 50 μg/ml gentamicin and 10% heat inactivated fetal calf serum.
# Reagents used in the Alamar Blue Assay
# Resazurin was purchased from Aldrich (Prod. No. 199303). Potassium ferrocyanide, potassium ferricyanide, KH2PO4 and K2HPO4 were purchased from Sigma (Prod. Nos. P9387, P8131, P5655 and P8281, respectively).
# Potassium Phosphate Buffer 0.1 M (PPB) was made as follows: 2.72 gram KH2PO4 and 13.86 gram K2HPO4 were dissolved in 500 ml milli-Q H2O, the pH was adjusted to pH 7.4 and the volume was brought to 1 liter with milli-Q H2O; the buffer was filter sterilised and stored at room temperature. Resazurin stock solution (PPB-A) was prepared fresh by dissolving 45 mg resazurin in 15 ml PBS. 30 mM potassium ferricyanide (PPB-B) was prepared by dissolving 0.987 gram potassium ferricyanide in 100 ml PPB. 30 mM potassium ferrocyanide (PPB-C) was prepared by dissolving 1.266 gram potassium ferrocyanide in 100 ml PPB.
# Mixture of PPB-A, PPB-B and PPB-C was prepared by mixing equal volumes of the respective solutions. Resazurin work solution (herein termed “Alamar Blue” solution) was prepared by diluting said mixture 20× (vol/vol) in PPB and filter sterilising; the Alamar Blue solution could be kept at 4° C. for a maximum of 2 weeks.
# Procedure of the Alamar Blue Assay
# For experiments in 384 wells plates the cells were seeded at a density of 4.5×10^3 cells/ml in Falcon 384-well culture plates (Life Technologies, Merelbeke, Belgium), black with clear bottom, in 45 μl culture medium. Cells were allowed to adhere to plastic for 24 hours. The tested compound was pre-diluted (1/50 in culture medium) and 5 μl pre-diluted compound was added to the wells. Following 4-day incubation, 10 μl of the Alamar Blue solution was added to each well and the cells were further incubated for 4 hours (HCT116) or 24 hours (PC-3) at 37° C. The fluorescence intensity was measured for each well on a Fluorescence plate reader (Fluorskan, Labsystems, 540 nm excitation and 590 nm emission)
# The antiproliferative activity was calculated as percentage of remaining viable cells in treated versus control (untreated cells) conditions. Within an experiment, the result for each experimental condition is the mean of 3 replicate wells. When appropriate, the experiments were repeated to establish full concentration-response curves. […] Herein the effects of tested compounds are expressed as pIC50 (the negative log value of the IC50 value) (see Table 3).
# [2] = tested on: tubulin; experiment: Tubulin polymerization assay; format: biochemical; conditions: inhibition of polymerization at 20 μM and 5 μM
# Protocol: Example C.5 Polymerization Assay
# The tubulin polymerization assay is an adaptation of an assay originally described by Bonne, D. et al. (J. Biol. Chem., 1985, 260:2819-25). The assay kit was purchased from Cytoskeleton, Inc. (catalogue number BK011) and the assay was performed as described by the supplier with the following modifications. The assay was run in a 384-well black Proxiplate (Perkin Elmer) and volumes were adapted accordingly. The reactions were carried out in a final volume of 10 μl. Compounds were added to 25 μl of the reaction mix in 96-well PP plates (Corning) on ice and 10 μl of this mixture was dispensed into duplicates of the 384-well Proxiplates pre-warmed to 37° C. in a Fluoroskan Ascent plate reader (Thermo Scientific). Fluorescence measurements were taken every minute for one hour. The maximum slope of each well was determined (linear regression through 4 consecutive points) and polymerization was calculated as a percentage of polymerization observed in the absence of compound.
# [3] = biological target: Human PARP-1 enzyme (Homo sapiens (Human), UniProt P09874); experiment: In vitro Scintillation Proximity Assay (SPA) for PARP-1 inhibitory activity; format: biochemical; conditions: nicked DNA activated PARP-1, [3H]-NAD+, biotinylated histones
# Protocol: C.1.In Vitro Scintillation Proximity Assay (SPA) for PARP-1 Inhibitory Activity
# Compounds of the present invention were tested in an in vitro assay based on SPA technology (proprietary to GE healthcare).
# In principle, the assay relies upon the well established SPA technology for the detection of poly(ADP-ribosyl)ation of biotinylated target proteins, i.e histones. This ribosylation is induced using nicked DNA activated PARP-1 enzyme and [^3H]-nicotinamide adenine dinucleotide ([^3H]-NAD^+) as ADP-ribosyl donor.
# Histones (type II-A, supplier: Sigma) were biotinylated using the biotinylation kit of Amersham and stored aliquoted at −20° C. A stock solution of 100 mg/ml SPA poly(vinyl toluene) (PVT) beads (supplier: Amersham) was made in PBS. A stock solution of 61.6 nM […] was made by adding [^3H]-NAD^+ (0.1 mCi/ml, supplier: Perkin Elmer) to incubation buffer (50 mM Tris/HCl, pH 8; 0.2 mM DTT; 4 mM MgCl2). A solution of 4 mM NAD^+ (supplier: Sigma) was made. Human PARP-1 enzyme was obtained from Trevigen. Biotinylated histones and PVT-SPA beads were mixed and pre-incubated for 30 minutes at room temperature. PARP-1 enzyme (concentration was lot dependent) was mixed with the nicked DNA and the mixture was pre-incubated for 30 minutes at 4° C. Equal parts of this histones/PVT-SPA beads solution and PARP-1 enzyme/DNA solution were mixed and 75 μl of this mixture together with 1 μl of compound in DMSO and 25 μl of [^3H]-NAD^+was added per well into a 96-well microtiterplate. The final concentrations in the incubation mixture were 2 μg/ml for the biotinylated histones, 2 mg/ml for the PVT-SPA beads, 0.25 μg/ml for the nicked DNA and between 0.1-0.2 μg/ml for the PARP-1 enzyme. After incubation of the mixture for 20 minutes at room temperature, the reaction was terminated by adding 100 μl of 4 mM NAD^+ in water (final concentration 2 mM) and plates were mixed. The beads were sedimented by centrifugation (10 min, 800 rpm) and plates transferred to a TopCountNXT™ (Packard) for scintillation counting, values were expressed as counts per minute (cpm). For each experiment, controls (containing PARP-1 enzyme and DMSO without compound), a blank incubation (containing DMSO but no PARP-1 enzyme, no DNA or compound) and samples (containing PARP-1 enzyme, DNA and compound dissolved in DMSO) were run in parallel. All compounds tested were dissolved and eventually further diluted in DMSO. A dose-response curve was made wherein the compounds were tested at concentrations between 10^−5M and 3×10^−9M. In each test, the blank value was subtracted from both the control and the sample values. The control sample represented maximal PARP-1 enzyme activity. For each sample, the amount of cpm was expressed as a percentage of the mean cpm value of the controls. […] Herein the effects of test compounds are expressed as pIC50 (the negative log value of the IC50-value). As a reference compound, 4-amino-1,8-naphthalimide was included to validate the SPA assay.
# Sequence of Human PARP-1 enzyme (P09874 whole entry): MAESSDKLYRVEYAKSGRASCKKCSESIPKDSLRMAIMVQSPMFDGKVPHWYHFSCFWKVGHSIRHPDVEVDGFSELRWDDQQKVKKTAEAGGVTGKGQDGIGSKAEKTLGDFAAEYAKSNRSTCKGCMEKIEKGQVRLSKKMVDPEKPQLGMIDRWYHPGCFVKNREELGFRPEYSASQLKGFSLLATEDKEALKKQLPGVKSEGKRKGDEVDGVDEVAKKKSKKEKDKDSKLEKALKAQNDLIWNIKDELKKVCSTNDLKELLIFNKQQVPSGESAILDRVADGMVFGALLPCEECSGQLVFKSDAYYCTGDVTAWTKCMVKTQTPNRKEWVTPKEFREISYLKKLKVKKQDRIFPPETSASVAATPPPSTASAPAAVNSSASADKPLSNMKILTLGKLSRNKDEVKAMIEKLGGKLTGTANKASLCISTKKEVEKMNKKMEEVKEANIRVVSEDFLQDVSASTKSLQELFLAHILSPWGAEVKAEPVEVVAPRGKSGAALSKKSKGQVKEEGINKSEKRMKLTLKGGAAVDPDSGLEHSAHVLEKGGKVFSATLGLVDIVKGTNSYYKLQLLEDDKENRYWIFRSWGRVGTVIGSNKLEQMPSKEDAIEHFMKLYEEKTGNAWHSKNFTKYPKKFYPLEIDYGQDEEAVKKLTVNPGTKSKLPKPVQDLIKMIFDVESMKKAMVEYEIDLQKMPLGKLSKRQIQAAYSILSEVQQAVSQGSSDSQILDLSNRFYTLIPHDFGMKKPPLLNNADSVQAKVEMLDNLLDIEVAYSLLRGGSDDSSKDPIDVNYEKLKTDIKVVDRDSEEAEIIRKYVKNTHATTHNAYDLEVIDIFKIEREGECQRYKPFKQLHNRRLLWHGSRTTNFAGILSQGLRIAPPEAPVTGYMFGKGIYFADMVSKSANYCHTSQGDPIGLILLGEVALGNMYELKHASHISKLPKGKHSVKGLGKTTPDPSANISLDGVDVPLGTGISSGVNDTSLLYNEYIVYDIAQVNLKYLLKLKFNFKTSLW
IC50 [1] [nM],in vitro SPA assay PARP-1 pIC50 [3],Structure (SMILES),Assay Tubulin Polymerization score [2]
355,7.44,CC(C#N)(Cc1ccccc1)c1ccc2c3c(c(=O)[nH]c2c1)CCCC3 (stereo not drawn) [Co. No. 1],2
148,9.03,CC(C#N)(Cc1cccc(C#N)c1)c1ccc2c3c(c(=O)[nH]c2c1)CCCC3 (stereo not drawn) [Co. No. 4],2
282,9.01,CC(C#N)(Cc1cccc(F)c1)c1ccc2c3c(c(=O)[nH]c2c1)CCCC3 (stereo not drawn) [Co. No. 5],2
58.9,8.38,CC(C#N)(Cc1cccc(C#N)n1)c1ccc2c3c(c(=O)[nH]c2c1)CCCC3 (stereo not drawn) [Co. No. 7],3 (a compound showing more than 50% inhibition at 5 μM is reported as score 3)
155,7.08,CC(C#N)(Cc1cccc(Cl)c1)c1ccc2c3c(c(=O)[nH]c2c1)CCCC3 (stereo not drawn) [Co. No. 8],2
204,7.35,CC(C#N)(CCOc1ccc(C#N)cc1)c1ccc2c3c(c(=O)[nH]c2c1)CCCC3 (stereo not drawn) [Co. No. 17],2
